{
  "source": "paper PMC9424906",
  "about": "(Frontiers in Pharmacology, 2022)",
  "key": {"OCT2": {"tested_on": "OCT2", "settings": "cited from earlier work"}, "[1]": {"tested_on": "plateable cryopreserved hepatocytes", "assay_type": "in vitro ADME, mouse, rat, dog, monkey, human", "method": "Plateable cryopreserved hepatocytes from male CD-1 mouse (Lot# DYF, 81.2% viability), male SD rat (Lot# PMD, 88.1% viability), male Beagle dog (Lot# YTK, 90.0% viability), male Cynomolgus monkey (Lot# GJV, 88.7% viability), and male human (Lot# PDC, 82.9% viability) were purchased from BioIVT (Baltimore, MD). Following vendor’s instructions, the hepatocyte vials were thawed in a 37°C water bath and cells were suspended in 5 mL of corresponding plating media (antibiotic added, rodent media for mouse and rat, dog media for dog, and primate media for monkey and human). The cells were manually counted using Trypan Blue method and were diluted to target concentration (0.35 million/mL for mouse and 0.7 million/mL for other species) with plating media. Diluted cells (500 µL) were then added to Collagen-I coated 24-well plate, distributed evenly, and incubated for 4 h for attaching. Media was changed 4 h prior to compound addition.\nAfter 24 and 48 h, the reaction was stopped by adding 3x volumes of cold acetonitrile to the reaction mixture. Samples were vortexed and centrifuged to precipitate proteins. The supernatants were transferred to clean tubes and dried under a stream of N2 for ∼20 min at ambient temperature to remove most of organic solvent. The remaining liquid was dried by lyophilization. […]"}, "physchem": {"assay": "physchem", "assay_type": "physicochemical", "settings": "pH 7.4, aqueous buffer, kinetic from dmso stock", "method": "Kinetic aqueous solubility was determined at NCATS using Pion’s patented µSOL assay as described previously ([Sun et al., 2019])."}, "BCRP": {"biological_target": "T1, BCRP (Homo sapiens, UniProt Q9UNQ0)", "T1 construct": "host or cells: MDCK (BCRP-MDCK)", "T1 sequence (Q9UNQ0 1-655)": "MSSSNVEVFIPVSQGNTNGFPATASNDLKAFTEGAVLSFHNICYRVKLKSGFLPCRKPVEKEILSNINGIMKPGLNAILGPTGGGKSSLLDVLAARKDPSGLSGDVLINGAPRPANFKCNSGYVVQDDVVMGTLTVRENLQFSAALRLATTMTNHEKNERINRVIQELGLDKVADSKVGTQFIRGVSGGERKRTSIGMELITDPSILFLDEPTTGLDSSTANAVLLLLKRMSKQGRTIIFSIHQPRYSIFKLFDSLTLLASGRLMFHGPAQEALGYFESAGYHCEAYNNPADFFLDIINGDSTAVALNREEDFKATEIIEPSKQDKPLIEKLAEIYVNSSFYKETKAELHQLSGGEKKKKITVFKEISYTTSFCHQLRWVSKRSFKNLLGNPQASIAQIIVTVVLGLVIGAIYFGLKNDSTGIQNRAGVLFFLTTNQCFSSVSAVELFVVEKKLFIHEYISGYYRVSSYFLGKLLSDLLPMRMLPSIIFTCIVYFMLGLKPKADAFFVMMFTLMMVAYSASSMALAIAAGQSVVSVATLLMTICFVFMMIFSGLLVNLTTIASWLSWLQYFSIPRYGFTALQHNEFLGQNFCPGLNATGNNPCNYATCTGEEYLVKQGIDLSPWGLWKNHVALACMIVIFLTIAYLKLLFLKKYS", "assay": "Bidirectional transport in MDCK-BCRP monolayers", "assay_type": "in vitro ADME", "settings": "dog, MDCK-BCRP, 5 µM", "method": "Caco-2 (American Type Culture Collection), MDR1-MDCK (NIH), and BCRP-MDCK (transfected by Absorption Systems) cell monolayers were grown to confluence on collagen-coated, microporous membranes in 12-well assay plates. Caco-2 cells were cultured for 27 days, MDCK-MDR1 and MDCK-BCRP cells were cultured for 8 days prior to experiments. […] The experiment was carried out in Hanks’ balanced salt solution (HBSS) containing 10 mM HEPES and 15 mM glucose at pH 7.4. HBSS in the receiver chamber also contained 1% bovine serum albumin. Cells were first pre-incubated for 0.5 h in HBSS with or without the specific inhibitor (1 µM valspodar or 0.5 µM Ko143 for MDR1 and BCRP, respectively). […] Cell monolayers were dosed on the apical side (A to B) or basolateral side (B to A) and incubated at 37°C with 5% CO2 in a humidified incubator. Samples were taken from the donor and receiver chambers at 2 h. Each experiment was performed in duplicate. All samples were assayed by LC-MS/MS. The apparent permeability (Papp) and percent recovery were calculated as described previously ([Katoh et al., 2006]; [Xia et al., 2006]; [Li et al., 2008])."}, "[2]": {"settings": "pH 7.4, with Ko143 0.5 µM, 0.5 µM Ko143"}},
  "data": [
    {"smiles": "N#C[C@@]1(c2ccc3c(N)ncnn23)O[C@H](CO)[C@@H](O)[C@H]1O", "note": "[GS-441524]", "values": [
      {"measurement": "Substrate of OCT2", "setting": "OCT2", "result": "not a substrate"},
      {"measurement": "Glucuronidation and sulfation metabolites in plateable hepatocytes", "setting": "[1]", "result": "detected at trace amount"},
      {"measurement": "Phosphorylated metabolites in plateable hepatocytes", "setting": "[1]", "result": "no detectable phosphorylated metabolites"},
      {"measurement": "solubility kinetic", "setting": "physchem", "result": 42, "unit": "µg/mL"},
      {"measurement": "Papp A→B at 2 h, 5 µM", "setting": "BCRP; [2]", "result": "< 0.198", "unit": "×10⁻⁶ cm/s"},
      {"measurement": "Papp B→A at 2 h, 5 µM", "setting": "BCRP; [2]", "result": "< 0.281", "unit": "×10⁻⁶ cm/s"},
      {"measurement": "Papp A→B at 2 h, 5 µM", "setting": "BCRP; pH 7.4, no inhibitor", "result": "< 0.197", "unit": "×10⁻⁶ cm/s"},
      {"measurement": "Papp B→A at 2 h, 5 µM", "setting": "BCRP; pH 7.4, no inhibitor", "result": 0.385, "unit": "×10⁻⁶ cm/s"}
    ]}
  ]
}
